Data reported in patent US8217085B2 (priority 2009, dated 2012).
Like-named read-outs stand apart in the source and are kept apart here.

How the values were obtained:
[1] = system: ATCC strain 43300 Staphylococcus aureus; type: cell-based
[2] = room temperature; cited from earlier work
[3] = system: ATCC strain 43300 Staphylococcus aureus; experiment: Survival of MRSA in MSM alone, 24 and 48 hours (USP<51> Antimicrobial Effectiveness template); conditions: 5-16% MSM alone, 24 or 48 hour time point
Method: USP<51> Antimicrobial Effectiveness protocol was used as the template experimental paradigm. […] All concentrations were plated out to the 10^−7 dilutionsto ascertain cfu/ml.
Material was calculated on a 10 ml volume.
All tubes were inoculated with a dilution of MRSA giving a final level of colony forming units of 2.0×10^5/ml (Log=5.23). The tubes were incubated at 25° C. and mixed periodically. Plating was done at 24 and 48 hours. Each condition was plated by diluting 1 ml of growth material into 9 ml of MLB diluent broth. This mixture was serial diluted down to 10^−7, and 1 ml placed in a sterile petri dish at each dilution point. 20 mls of TSA was added to each dilution, swirled and allowed to solidify. All dilutions were placed in a 35° C. incubator for 24 hours. Bacterial colonies on each plate were counted and colony counts changed into log format. A positive and negative control was ascertained.

[4] = system: ATCC strain 43300 Staphylococcus aureus
Method: Additional antibiotic was added every 24 hours. The growth periods tested were 24 (FIG. 5), 48, 72, 96 and 120 hours.
USP<51> Antimicrobial Effectiveness protocol was used as the template experimental paradigm. […] All concentrations were plated out to the 10^−7 dilutions to ascertain cfu/ml. […] Additional antibiotic was added at the initial concentration every 24 hours.
ATCC strain 43300 Staphylococcus aureus was streaked out for isolations. An isolated colony was chosen, streaked again and incubated. Isolate was chosen and then diluted to a McFarland standard of one. The estimated value was then taken to inoculate tubes containing growth media and 12, 30 or 60 μg/ml methicillin with approximately 10^5 cfu/ml. These tubes were incubated and plated for counting cfu.
Material was calculated on a 10 ml volume. Sterile methicillin was added to each experimental condition to a final concentration of 12, 30 or 60 μg/ml antibiotic. Lactose Broth positive controls both with and without the 12 μg/ml, 30 μg/ml, 60 μg/ml antibiotic were inoculated with MRSA. […] Tubes were set up in singlet, but plated in triplicate, as described below.
All tubes were then inoculated with a dilution of the selected ATCC strain 43300 Staphylococcus aureus clone giving a final level of colony forming units of 1.49×10^5/ml (log=5.17). The tubes were incubated at 25° C. and mixed periodically. Antibiotic was re-inoculated every 24 hours at the initial concentration to maintain pressure on the organism. Plating was done at 24, 48, 72, and 120 hours. Each condition was plated by diluting 1 ml of growth material into 9 ml of MLB diluent broth. […] This mixture was serial diluted down to 10^−7 with 1 ml placed in triplicate in a sterile petri dish at each dilution point. 20 mls of TSA was added to each dilution, swirled and allowed to solidify. All dilutions were placed in a 35° C. incubator for 24 to 72 hours. Bacterial colonies on each plate were counted and the average taken then changed into log format.

[5] = system: ATCC strain 43300 Staphylococcus aureus; conditions: for average log reduction in cfu/ml: 48 hours; for Log reduction in cfu/ml: 120 hours
Method: This is the MIC for oxacillin and methicillin for this strain of bacteria.
USP<51> Antimicrobial Effectiveness protocol was used as the template experimental paradigm. […] All concentrations were plated out to the 10^−7 dilutionsto ascertain cfu/ml. […] This concentration is the industry standard for determining MRSA resistance in clinical applications.
Material was calculated on a 10 ml volume. Sterile oxacillin or methicillin was added to each experimental condition daily at 300 μl from a 30 mg/10 ml concentration giving it an initial final concentration of 6 μg/ml.
All tubes were inoculated with a dilution of MRSA giving a final level of colony forming units of 2.13×10^6/ml (Log=6.3). The tubes were incubated at 25° C. and mixed periodically. Plating was done at 24 hours, 48 hours and 5 days. Each condition was plated by diluting 1 ml of growth material into 9 ml of MLB diluent broth. This mixture was serial diluted down to 10^−7, and 1 ml placed in a sterile petri dish at each dilution point. 20 mls of TSA was added to each dilution, swirled and allowed to solidify. All dilutions were placed in a 35° C. incubator for 24 hours. Bacterial colonies on each plate were counted and colony counts changed into log format. A positive and negative control was ascertained.

In the case of `CS(C)(=O)=O` [MSM, methylsulfonylmethane], the “recovery of MRSA after enrichment” value ([1]; 5% MSM, 60 μg/ml methicillin, 72 hours) is reported as “true total kill”, the “recovery of MRSA after enrichment” value ([1]; 6% MSM, 12 μg/ml methicillin, 72 hours) is reported as “true total kill” and the “recovery of MRSA after enrichment” value ([1]; 6% MSM, 60 μg/ml methicillin, 72 hours) is reported as “true total kill”. The “recovery of MRSA after enrichment” value ([1]; 7% MSM, 12 μg/ml methicillin, 72 hours) was “true total kill”, the “recovery of MRSA after enrichment” value ([1]; 8% MSM, 12 μg/ml methicillin, 96 hours) was “true total kill” and the “recovery of MRSA after enrichment” value ([1]; 10% MSM, 30 μg/ml methicillin, 120 hours) was “true total kill”. The “recovery of MRSA after enrichment” value ([1]; 11% MSM, 30 μg/ml methicillin, 120 hours) was “true total kill”, the “recovery of MRSA after enrichment” value ([1]; 11% MSM, 60 μg/ml methicillin, 120 hours) was “true total kill” and the “recovery of MRSA after enrichment” value ([1]; 12% MSM, 30 μg/ml methicillin, 120 hours) was “true total kill”. The “recovery of MRSA after enrichment” value ([1]; 12% MSM, 60 μg/ml methicillin, 120 hours) was “true total kill”, the “recovery of MRSA after enrichment” value ([1]; 14% MSM, 60 μg/ml methicillin, 120 hours) was “true total kill” and the “recovery of MRSA after enrichment” value ([1]; 15% MSM, 60 μg/ml methicillin, 120 hours) was “true total kill”. For the same compound, the “recovery of MRSA after enrichment” value ([1]; 16% MSM, 30 μg/ml methicillin, 120 hours) was “true total kill”, the water solubility [2] was at least 20% and the effect on survival [3] was “none of the concentrations of MSM tested had any effect on the survival”. For the same compound, the “average log reduction in colony count” value ([4]; 30 μg/ml methicillin, lower end of MSM concentrations, 24 hours) was 3 log, the “log reduction in colony count” value ([4]; 5% MSM, 60 μg/ml methicillin, 48 hours) was 4.1 log and the “log reduction in colony count” value ([4]; 6% MSM, 12 μg/ml methicillin, 48 hours) was 4.1 log. For the same compound, the “log reduction in colony count” value ([4]; 6% MSM, 30 μg/ml methicillin, 24 hours) was 2.8 log, the log reduction ([4]; 16% MSM, 12 μg/ml methicillin, 24 hours) was 2.2 log and the “average log reduction in cfu/ml” value ([5]; initial 5% MSM, 6 μg/ml methicillin) was 2.7 log. The “average log reduction in cfu/ml” value ([5]; initial 8% MSM, 6 μg/ml oxacillin) was 2.7 log, the “Log reduction in cfu/ml” value ([5]; initial 13-16% MSM, 6 μg/ml methicillin) was about 3.5 log and the “Log reduction in cfu/ml” value ([5]; initial 14-16% MSM, 6 μg/ml oxacillin) was about 3.3 log. For the same compound, the “average log reduction in cfu/ml” value ([5]; initial 16% MSM, 6 μg/ml methicillin) was 2.1 log and the “average log reduction in cfu/ml” value ([5]; initial 16% MSM, 6 μg/ml oxacillin) was 2.1 log.
